Source: US10434067B2, “Composite formulation for oral administration comprising ezetimibe and rosuvastatin” (HANMI PHARM. CO., LTD., priority 2013, dated 2019)

Assay: Forced degradation test of ezetimibe
Assay type: physicochemical
Details: for Amount of ezetimibe (%): 2 hours
Procedure: The main ingredient, ezetimibe was precisely weighed to about 100 mg and put in a 200 mL volumetric flask. Then, about 20 mL of 90% (v/v) acetonitrile (ACN) was added thereto, and then, completely dissolved by performing ultrasonic extraction for about 10 minutes. Next, the resultant mixture was subjected to a forced degradation test according to each condition using control, oxidation, a strong base, strong acid, and heat as described below.
1) Control: About 10 mL of distilled water was added to the mixture, and the mixture was left in an oven at a temperature of about 60° C. for about 2 hours to proceed a reaction, cooled down to room temperature, and 10 mL of distilled water was dropped thereto.
2) Oxidation: About 10 mL of a 0.5% (v/v) hydrogen peroxide solution was added to the mixture, and the mixture was left in an oven at a temperature of about 60° C. for about 2 hours to proceed a reaction, cooled down to room temperature, and 10 mL of distilled water was dropped thereto.
3) Strong base: About 10 mL of 0.1N NaOH was added to the mixture, and the mixture was left in an oven at a temperature of about 60° C. for about 2 hours to proceed a reaction, cooled down to room temperature, and t 10 mL of 0.1N HCl was dropped thereto (neutralization).
4) Strong acid: About 10 mL of 0.1N HCl was added to the mixture, and the mixture was left in an oven at a temperature of about 60° C. for about 2 hours to proceed a reaction, cooled down to room temperature, and about 10 mL of 0.1N NaOH 10 mL was dropped thereto (neutralization).
5) Heat: About 10 mL of distilled water was added to the mixture, and the mixture was left in an oven at a temperature of about 105° C. for about 2 hours to proceed a reaction, cooled down to room temperature, and about 10 mL of distilled water was dropped thereto.
Then, each of the samples obtained from the degradation test was cooled down to room temperature, and an extract solvent (i.e., a mixed solution of about 0.1 ml of 85% phosphate solution and about 1,000 ml of acetonitrile) was added thereto for each condition above, thereby preparing a test liquid in an amount of 200 mL. Then, the test liquid was analyzed by ‘HPLC’ according to General Tests as set forth in the Korean Pharmacopoeia and calculated according to a ‘quantitation testing method’ and an ‘related compound testing method’, and the amounts of ezetimibe and its main degradation products having […] relative retention time (RRT) were calculated as shown in Table 9 below and FIG. 1.
In addition, the amounts of related compounds of each of the test liquids were calculated, and then, analyzed in connection with an RRT for respective test liquids.

## O=C1[C@H](CC[C@H](O)c2ccc(F)cc2)[C@@H](c2ccc(O)cc2)N1c1ccc(F)cc1 [ezetimibe]
Control
  Total % of related compounds in test liquid: 0.63%
  related compound at relative retention time 0.15: − (Less than 0.05%)
  related compound at relative retention time 0.18: ++ (0.10% or greater and less than 0.20%)
  related compound at relative retention time 0.26: − (Less than 0.05%)
  related compound at relative retention time 0.47: +++ (0.20% or greater and less than 0.50%)
  related compound at relative retention time 0.54: − (Less than 0.05%)
  related compound at relative retention time 0.64: − (Less than 0.05%)
  related compound at relative retention time 0.67: − (Less than 0.05%)
  related compound at relative retention time 0.74: − (Less than 0.05%)
  related compound at relative retention time 1.11: − (Less than 0.05%)
  related compound at relative retention time 1.18: − (Less than 0.05%)
  related compound at relative retention time 1.37: ++ (0.10% or greater and less than 0.20%)
Control: distilled water, 60° C.
  Amount of ezetimibe (%): 57.90%
Heat
  Total % of related compounds in test liquid: 1.97%
  related compound at relative retention time 0.15: − (Less than 0.05%)
  related compound at relative retention time 0.18: ++ (0.10% or greater and less than 0.20%)
  related compound at relative retention time 0.26: − (Less than 0.05%)
  related compound at relative retention time 0.47: ++++ (0.50% or greater and less than 1.0%)
  related compound at relative retention time 0.54: − (Less than 0.05%)
  related compound at relative retention time 0.64: − (Less than 0.05%)
  related compound at relative retention time 0.67: − (Less than 0.05%)
  related compound at relative retention time 0.74: − (Less than 0.05%)
  related compound at relative retention time 1.11: − (Less than 0.05%)
  related compound at relative retention time 1.18: + (0.05% or greater and less than 0.10%)
  related compound at relative retention time 1.37: ++++ (0.50% or greater and less than 1.0%)
Heat: distilled water, 105° C.
  Amount of ezetimibe (%): 0.21%
Oxidation
  Total % of related compounds in test liquid: 0.61%
  related compound at relative retention time 0.15: − (Less than 0.05%)
  related compound at relative retention time 0.18: ++ (0.10% or greater and less than 0.20%)
  related compound at relative retention time 0.26: − (Less than 0.05%)
  related compound at relative retention time 0.47: +++ (0.20% or greater and less than 0.50%)
  related compound at relative retention time 0.54: − (Less than 0.05%)
  related compound at relative retention time 0.64: − (Less than 0.05%)
  related compound at relative retention time 0.67: − (Less than 0.05%)
  related compound at relative retention time 0.74: − (Less than 0.05%)
  related compound at relative retention time 1.11: − (Less than 0.05%)
  related compound at relative retention time 1.18: − (Less than 0.05%)
  related compound at relative retention time 1.37: ++ (0.10% or greater and less than 0.20%)
Oxidation: 0.5% hydrogen peroxide, 60° C.
  Amount of ezetimibe (%): 61.06%
Strong acid
  Total % of related compounds in test liquid: 0.45%
  related compound at relative retention time 0.15: + (0.05% or greater and less than 0.10%)
  related compound at relative retention time 0.18: ++ (0.10% or greater and less than 0.20%)
  related compound at relative retention time 0.26: ++ (0.10% or greater and less than 0.20%)
  related compound at relative retention time 0.47: − (Less than 0.05%)
  related compound at relative retention time 0.54: − (Less than 0.05%)
  related compound at relative retention time 0.64: − (Less than 0.05%)
  related compound at relative retention time 0.67: − (Less than 0.05%)
  related compound at relative retention time 0.74: − (Less than 0.05%)
  related compound at relative retention time 1.11: − (Less than 0.05%)
  related compound at relative retention time 1.18: − (Less than 0.05%)
  related compound at relative retention time 1.37: − (Less than 0.05%)
Strong acid: 0.1N HCl, 60° C.
  Amount of ezetimibe (%): 100.31%
Strong base
  Total % of related compounds in test liquid: 21.48%
  related compound at relative retention time 0.15: + (0.05% or greater and less than 0.10%)
  related compound at relative retention time 0.18: +++++ (1.0% or greater)
  related compound at relative retention time 0.26: + (0.05% or greater and less than 0.10%)
  related compound at relative retention time 0.47: +++ (0.20% or greater and less than 0.50%)
  related compound at relative retention time 0.54: +++++ (1.0% or greater)
  related compound at relative retention time 0.64: +++ (0.20% or greater and less than 0.50%)
  related compound at relative retention time 0.67: ++ (0.10% or greater and less than 0.20%)
  related compound at relative retention time 0.74: + (0.05% or greater and less than 0.10%)
  related compound at relative retention time 1.11: + (0.05% or greater and less than 0.10%)
  related compound at relative retention time 1.18: ++ (0.10% or greater and less than 0.20%)
  related compound at relative retention time 1.37: +++++ (1.0% or greater)
Strong base: 0.1N NaOH, 60° C.
  Amount of ezetimibe (%): 1.56%
In a basic environment
  stability of ezetimibe (in words): unstable
Under an acidic condition
  stability of ezetimibe (in words): stable
